US4874891A, “Open "D" ring hormone analogs” (Washington University, priority 1986, dated 1989)

Molecular target: T1, 17β-HSD (Homo sapiens, UniProt P14061)
T1 sequence (P14061 1-328): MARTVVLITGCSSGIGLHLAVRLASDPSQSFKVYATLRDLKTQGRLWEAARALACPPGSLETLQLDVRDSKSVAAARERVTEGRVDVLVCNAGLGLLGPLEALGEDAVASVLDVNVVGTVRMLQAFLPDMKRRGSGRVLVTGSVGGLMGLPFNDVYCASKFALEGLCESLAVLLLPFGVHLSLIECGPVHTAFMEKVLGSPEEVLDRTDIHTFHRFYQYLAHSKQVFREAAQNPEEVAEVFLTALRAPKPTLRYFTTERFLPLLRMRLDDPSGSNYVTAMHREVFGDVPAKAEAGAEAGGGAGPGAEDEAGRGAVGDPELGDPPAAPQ
Assay: Time-dependent inactivation of 17β-HSD (NADH production at 340 nm with estradiol and NAD+)
Assay type: biochemical
Method: The compounds of the invention prepared as described above were tested for their ability to affect the reaction catalyzed by 17β-HSD, as follows.
Approximately 5 μl of a 2-20 mM solution of the test compound in absolute alcohol was added to the incubation mixture, which contained:
200 μM NAD^+ (100 μl of 2 mM stock);
795 μl 100 mM sodium carbonate buffer (pH 9.2, containing 20% glycerol) or 795 μl phosphate buffer (pH 7.4, 20% glycerol);
90 μg of enzyme (supplied as 100 μl of 0.9 μg/μl stock).
Aliquots were removed at intervals and added to 950 μl of assay cocktail, which contained:
100 mM sodium carbonate buffer;
60 μM estradiol in propylene glycol stock;
0.8% human serum albumin.
The activity remaining in the incubation mixture was assessed by NADH production in the assay cocktail monitored by adsorption at 340 nm every 15 sec for 2 min with an automated spectrophotometer.
All aqueous stock solutions were prepared in 100 mM sodium carbonate buffer, 20% glycerol, to maintain enzyme stability. Where additional components were added, such as glutathione, volumes were adjusted accordingly. To assess loss of enzyme activity independent of the test compound, 5 μl ethanol was added in place of steroid stock solution to the assay cocktail.
When aliquots were withdrawn less than 3 min apart, the aliquot was quenched in 900 μl assay buffer without NAD^+ and supplemented with 5 mM glutathione: after all aliquots were withdrawn, samples were assayed by adding NAD^+ (50 μl of a 4 mM stock) and monitored as above.
Compounds of the invention were evaluated in terms of Km, Vmax, and Rp.

| SMILES | effect of glutathione on inactivation of the enzyme (5 mM glutathione) | substrate for the enzyme (presence of NAD+) | effect of NADH on inactivation of the enzyme (presence of NADH) |
| --- | --- | --- | --- |
| C#CC(O)C1(C)CCC2c3ccc(O)cc3CCC2C1 (stereo not drawn) [--CH(OH)C.ident.CH, [2S-[2α(S*),4aα,10aβ]]-α-Ethynyl-1,2,3,4,4a,9,10,10a-octahydro-7-hydroxy-2-methyl-2-phenanthrenemethanol] | 5 mM glutathione protects the enzyme from inactivation | – | – |
| C#CC(=O)[C@@]1(C)CC[C@@H]2c3ccc(O)cc3CC[C@H]2C1 [--COC.ident.CH, [2S-(2α,4aα,10aβ)]-1-(1,2,3,4,4a,9,10,10a-Octahydro-7-hydroxy-2-methyl-2-phenanthrenyl)-2-propyn-1-one] | – | not a substrate for the enzyme in the presence of NAD^+ | inactivation of the enzyme is inhibited by the presence of NADH |
